Key:
Type in all cases: in vivo, human
[1] = Safety and tolerability, adverse events in single-dose food effect study (Example 8); details: for Feeling Hot (subjects reporting) / Flushing (subjects reporting): 12 subjects
From the text: (§1) Twenty-four healthy adult volunteers (males and females) participated in the study. Twelve of the subjects received a dosage form of Example 1, once in a fed condition and once in a fasted condition, with a two-week washout between treatments. Twelve other subjects received a dosage form of Example 2, once in a fed condition and once in a fasted condition, with a two-week washout between treatments. The fasted dosing was achieved by dosing the subject following an overnight fast while the fed dosing was achieved by dosing the subject after consuming a high fat-content breakfast.

[2] = Safety and tolerability, adverse events in single-dose food effect study (Example 15); details: for Feeling Hot (subjects reporting) / Flushing (subjects reporting): 12 subjects
From the text: (§2) Twelve healthy adult volunteers (males and females) participated in the study. All twelve subjects received a dosage form of Example 9, once in a fed condition and once in a fasted condition, with a two-week washout between treatments. The fasted dosing was achieved by dosing the subject following an overnight fast while the fed dosing was achieved by dosing the subject after consuming a high fat-content breakfast.

[3] = Single-dose food effect pharmacokinetic study in healthy adult subjects (Example 8); details: promoiety after oral dosing of Example 2 formulation
From the text: as §1
(§3) Urine samples were collected from all subjects prior to dosing, and complete urine output was obtained at the 0-4, 4-8, 8-12, 12-24, 24-36, 36-48, 48-72, 72-96 and 96-120 hour intervals after dosing. Blood samples were quenched immediately with acetonitrile and frozen.

[4] = Single-dose food effect pharmacokinetic study of sustained release dosage form in healthy adult subjects (Example 15); details: promoiety after oral dosing of the formulation
From the text: as §2, §3

[5] = single 200 mg oral dose, fed and fasted

Row | Structure (SMILES) | Feeling Hot (subjects reporting) ([1]; Fasted) | Flushing (subjects reporting) ([1]; Fasted) | Feeling Hot (subjects reporting) ([1]; Fed) | Flushing (subjects reporting) ([1]; Fed) | tolerability during the trial [1, 5] | Feeling Hot (subjects reporting) ([2]; Fasted) | Flushing (subjects reporting) ([2]; Fasted) | Feeling Hot (subjects reporting) ([2]; Fed) | Flushing (subjects reporting) ([2]; Fed) | tolerability during the trial [2, 5] | half life of clearance from blood [3] | half life of clearance from blood [4]
1 | CCN(CC)C(=O)COC(=O)/C=C/C(=O)OC [(N,N-Diethylcarbamoyl)methyl methyl (2E)but-2-ene-1,4-dioate] | no subjects | No subjects | no subjects | One | well tolerated | no subjects | No subjects | no subjects | Two | well tolerated | – | –
2 | CCN(CC)C(=O)CO [Promoiety] | – | – | – | – | – | – | – | – | – | – | around 3 hours | around 3 hours
